Source: patent publication US8093394B2, “Derivatives of 5-thioxylopyranose and use of same for treatment” (Laboratoires Fournier S.A., priority 2006, dated 2012)

These molecules were tested on venous thrombosis (assay: venous thrombosis test in rats, activity via the oral route (venous stasis under hypercoagulation with factor Xa, Wessler technique)). Details: dose 6 mg/kg, thrombosis induced 2 h after administration, male Wistar rats.
Assay type: in vivo
Protocol: The antithrombotic activity of the compounds according to the invention was studied in vivo in rats by virtue of a test in which a venous thrombosis is reproduced. The venous thrombosis was induced according to the protocol described in Thromb. Haemost., 1992, 67(1), 176-179. The activity via the oral route was studied according to the procedure described below. The experiment is carried out on non-fasting male Wistar rats weighing from 250 to 280 g and divided into groups of 10 animals each. The test products are administered orally (intubation) in solution or in suspension in a 0.5% solution of methylcellulose in water. The concentrations of the compounds are calculated so as to bring about the absorption of an amount of solution of 10 ml/kg orally. A thrombosis is induced at a time T after the administration of the product and the thrombus formed is removed and weighed. In order to induce this thrombosis, a venous stasis is brought about under hypercoagulation, according to the technique described by Wessler (J. Applied Physiol., 1959, 943-946), using a solution of activated factor X (Xa), supplied by Biogenic (Montpellier) and comprising a dose of 7.5 nKat/kg, as hypercoagulant. The venous stasis is brought about 10 seconds exactly after the injection of the hypercoagulant. The activity of the test compounds is monitored at various doses, after they have been administered. The thrombosis is induced 2 hours after the administration of the compound. By way of example, the results of the above tests are given in the following table for a few compounds according to the invention (the activity is expressed by the percentage of inhibition of the formation of the thrombus, observed in the presence of the compound according to the invention, with respect to the weight of the thrombus formed in the absence of the compound).
`O[C@@H]1[C@@H](O)[C@H](Oc2ccc(-c3ccncc3)nc2F)SC[C@H]1O` [Example 22, 2-Fluoro-6-(4-pyridinyl)-3-pyridinyl 5-thio-β-D-xylopyranoside] was tested, and the “Activity (percentage of inhibition of the formation of the thrombus, with respect to the weight of the thrombus formed in the absence of the compound)” value was 100%.
In the case of `O[C@@H]1[C@@H](O)[C@H](Oc2ccc(-c3ccncc3)nc2Cl)SC[C@H]1O` [Example 24, 2-Chloro-6-(4-pyridinyl)-3-pyridinyl 5-thio-β-D-xylopyranoside], the “Activity (percentage of inhibition of the formation of the thrombus, with respect to the weight of the thrombus formed in the absence of the compound)” value is reported as 96%.
With `O[C@@H]1[C@@H](O)[C@H](Oc2cncc(-c3ccc(Cl)nc3)c2)SC[C@H]1O` [Example 30, 5-(6-Chloro-3-pyridinyl)-3-pyridinyl 5-thio-β-D-xylopyranoside] the “Activity (percentage of inhibition of the formation of the thrombus, with respect to the weight of the thrombus formed in the absence of the compound)” value was 97%.
In the case of `O[C@@H]1[C@@H](O)[C@H](Oc2ccc(-c3cccnc3Cl)nc2)SC[C@H]1O` [Example 40, 6-(2-Chloro-3-pyridinyl)-3-pyridinyl 5-thio-β-D-xylopyranoside], the “Activity (percentage of inhibition of the formation of the thrombus, with respect to the weight of the thrombus formed in the absence of the compound)” value is reported as 96%.
For `O[C@@H]1[C@@H](O)[C@H](Oc2ccc(-c3cccs3)nc2)SC[C@H]1O` [Example 108, 6-(2-Thienyl)-3-pyridinyl 5-thio-β-D-xylopyranoside], the “Activity (percentage of inhibition of the formation of the thrombus, with respect to the weight of the thrombus formed in the absence of the compound)” value was 95%.
In the case of `O[C@@H]1[C@@H](O)[C@H](Oc2ccc(-c3ccncc3)nc2)SC[C@H]1O` [Example 122, 6-(4-Pyridinyl)-3-pyridinyl 5-thio-β-D-xylopyranoside], the “Activity (percentage of inhibition of the formation of the thrombus, with respect to the weight of the thrombus formed in the absence of the compound)” value is reported as 93%.
For `O[C@@H]1[C@@H](O)[C@H](Oc2ccnc(-c3ccncc3)c2)SC[C@H]1O` [Example 130, 2-(4-Pyridinyl)-4-pyridinyl 5-thio-β-D-xylopyranoside], the “Activity (percentage of inhibition of the formation of the thrombus, with respect to the weight of the thrombus formed in the absence of the compound)” value was 91%.
With `Cc1oncc1-c1ccc(O[C@@H]2SC[C@@H](O)[C@H](O)[C@H]2O)cn1` [Example 140, 6-(5-Methyl-4-isoxazolyl)-3-pyridinyl 5-thio-β-D-xylopyranoside] the “Activity (percentage of inhibition of the formation of the thrombus, with respect to the weight of the thrombus formed in the absence of the compound)” value was 96%.
`Cc1cncc(-c2ccc(O[C@@H]3SC[C@@H](O)[C@H](O)[C@H]3O)cn2)c1` [Example 142, 6-(5-Methyl-3-pyridinyl)-3-pyridinyl 5-thio-β-D-xylopyranoside] was tested, and the “Activity (percentage of inhibition of the formation of the thrombus, with respect to the weight of the thrombus formed in the absence of the compound)” value was 97%.
`Cn1cc(-c2ncc(O[C@@H]3SC[C@@H](O)[C@H](O)[C@H]3O)cc2F)cn1` [Example 224, 5-Fluoro-6-(1-methyl-1H-pyrazol-4-yl)-3-pyridinyl 5-thio-β-D-xylopyranoside] was tested, and the “Activity (percentage of inhibition of the formation of the thrombus, with respect to the weight of the thrombus formed in the absence of the compound)” value was 99%.
In the case of `Cc1noc(C)c1-c1ncc(O[C@@H]2SC[C@@H](O)[C@H](O)[C@H]2O)cc1F` [Example 226, 6-(3,5-Dimethyl-4-isoxazolyl)-5-fluoro-3-pyridinyl 5-thio-β-D-xylopyranoside], the “Activity (percentage of inhibition of the formation of the thrombus, with respect to the weight of the thrombus formed in the absence of the compound)” value is reported as 97%.
